Measured values: patent publication US20200345689A1, “METHODS AND CO[…] RRx-001 FOR RADIOPROTECTION” (EpicentRx, Inc., priority 2018, published 2020)

Legend:
heme oxygenase 1 (HO-1) = assay: Western blot of ARE protein expression in hMSC: HO-1; type: cell-based, human; conditions: 5 mM RRx-001 for 16 hours
Procedure: Antioxidant response element (ARE) genes such as heme oxygenase 1 (HO-1), NAD(P)H Dehydrogenase [Quinone] 1 (NQO-1) and Superoxide Dismutase (SOD) are involved in the detoxification and elimination of reactive oxidants.
Expression of ARE proteins was assayed in hMSC, macrophages, and monocytes following in vitro irradiation of the cells, which were pretreated with RRx-001 or vehicle. Protein expression was assayed by Western blotting and protein quantification.
hMSC were treated for 16 hours with […] RRx-001 or the vehicle control (0.05% DMSO), irradiated at 10 Gy or sham-irradiated and the protein collected 8 or 24 hours post-sham or irradiation. Human monocytic leukemic THP-1 and U937 cells were differentiated into macrophages with 50 nM Phorbol 12-myristate 13-acetate (PMA) for 24 hours before treatment. Differentiated and non-differentiated cells were treated with […] RRx-001 or 0.05% DMSO (vehicle control) for 16 hours prior to radiation. The cells were irradiated at 5 Gy or sham-irradiated and collected 4-8 hours later for both analysis. For each experiment, duplicates of each sample were run.

bone marrow = assay: Histopathology of sternal bone marrow (cellularity grade, megakaryocytes) after sublethal TBI or sham irradiation; type: in vivo, mice
Procedure: (§1) To determine the pathophysiological effects of RRx-001 on hematopoietic protection in mice, CD2F1 male mice were treated with 10 mg/kg RRx-001 or the vehicle control 24 hours prior to a sublethal dose of TBI (7 Gy at 0.6 Gy/min using High-level Cobalt-60) or sham irradiation (day 0) according to the table below.
(§2) CD2F1 male mice (n=3/group) were divided into 4 experimental groups: 1) irradiation+vehicle, 2) irradiation+RRx-001, 3) sham-irradiation+vehicle and 4) sham-irradiation+RRx-001. Either 10 mg/kg RRx-001 or the vehicle control were IP injected 24 hours prior to either irradiation or sham-irradiation (day 0). On days 2, 7, 14, 21, and 28 post-irradiation (day 0) mice were humanely euthanized. Blood, bone marrow, and sternebrae were then collected. This experiment was performed in duplicate for a total of n=6 mice/group/time point.
Sternebrae from euthanized mice (n=6/group/time point) were collected on days 2, 7, 14, 21 and 28 post-irradiation. Sternebrae were fixed in 10% zinc-buffered formalin for at least 24 hours and up to 7 days. Fixed sternebrae were decalcified for 3 hr in 12-18% sodium EDTA (pH 7.4-7.5) and specimens dehydrated using graded ethanol concentrations and embedded in paraffin. Longitudinal 4μm sections were stained with regular hematoxylin and eosin. Two board-certified pathologist conducted histopathological evaluation of the samples. One of the pathologist scored all the samples blindly. Bone marrow was evaluated in situ within sternebrae and graded (Grade 1: <10%; Grade 2: 11-30%; Grade 3: 31-60%; Grade 4: 61-89%; Grade 5: >90%) for total cellularity. Megakaryocytes were also quantified based on the average per 10 high power fields (HPF) at 400× magnification using a BX43 or BX53 microscope (Olympus, Minneapolis, Minn.). Images were captured with an Olympus DP22 camera and imported into Olympus Cellsens Standard software for review.
(§3) Blood parameters were compared between treatment groups using an analysis of variance (ANOVA). The Wilcoxon test was also used for sensitivity and to potentially address data departures from normality. A longitudinal mixed model repeated measures was also implemented to provide a more complete data analysis of the sham-irradiated treatment groups' difference in overall time profile mean based on the blood parameters. Bone marrow data (megakaryocytes and grade) statistical analysis was carried out using a parametric test consisting of a general linear model analysis of variance (ANOVA with factors consisting of treatment group and pathologist) and the Kruskal-Wallis nonparametric test. The statistical data analysis was carried out using R software (Version 3.4.3, 2016) and the graphs made using GraphPad Prism version 7.03 (GraphPad Software, La Jolla, Calif.).
To determine the effect of RRx-001 on bone marrow, a histopathological analysis of bone marrow sternebrae was performed and the cellularity, as reported by grade (grade 1: <10%; grade 2: 11-30%; grade 3: 31-60%; grade 4: 61-89%; grade 5: >90% cellularity), and megakaryocyte numbers (averaged per 10 high-powered fields; HPF) were ascertained by two pathologists, one of which scored all the samples blindly (TAS, WEC).

CD2F1 male mice = assay: Complete blood count with differential and reticulocytes after sublethal TBI or sham irradiation; type: in vivo
Procedure: as §1, §2
Post-irradiation whole blood was obtained by terminal cardiocentesis. Blood samples were immediately transferred into EDTA tubes (Sarstedt Inc., Newton, N.C.) and gently rotated until the time of analysis. The tubes were analyzed for a complete blood count with differential and reticulocytes using the ADVIA 2120 (Siemens Medical Solutions Diagnostics, Dublin, Ireland), and Microsoft software version 5.9 (Microsoft Corp., Redmond, Wash.) to generate the data.
as §3

[1] = Tolerability and body weight in the hamster mucositis study; type: in vivo, hamsters
Procedure: Fifty-six (56) male Syrian Golden Hamsters were used in the study. Mucositis was induced by administering an acute radiation dose of 40 Gy directed to the left buccal cheek pouch on Day 0 at a rate of 2-2.5 Gy/min. Mucositis was evaluated clinically starting on Day 6 and continuing on alternate days until Day 28. Hamsters reaching a mucositis severity score of 4 or higher received buprenorphine (0.5 mg/kg) SC twice a day for 48 hours or until score dropped below 4.
Dosing was scheduled as follows: for animals in Groups 1-4, animals were dosed with RRx-001 (1, 3, or 10 mg/kg) or vehicle (1:2 DMA:PEG400 vol:vol ratio) once a day (QD) on Days −4, −1, 1, 4, 7, 11, 14, 18, 21, and 25 via intraperitoneal (IP) administration; animals in Groups 5-7 were dosed QD with RRx-001 (1, 3, or 10 mg/kg) on Days −4, −1, 1, 8, 15, and 22.
Dosing of all other groups continued as scheduled. Upon study conclusion, on Day 28, Animals were euthanized via CO2 inhalation and death was confirmed by monitoring heartbeat in accordance with USDA guidelines.

[2] = 7 Gy TBI, decrease below sham controls on days 7 and 14
[3] = days 2 and 21 post-irradiation (7 Gy TBI)

In the case of `O=C(CBr)N1CC([N+](=O)[O-])([N+](=O)[O-])C1` [RRx-001, 2-bromo-1-(3,3-dinitroazetidin-1-yl)ethan-1-one], the “increase in HO-1 expression” value (heme oxygenase 1 (HO-1); 24 hours post-sham or irradiation) is reported as 2-3.5 fold, the “increase in HO-1 expression” value (heme oxygenase 1 (HO-1); sham and 10 Gy irradiated groups, 8 hours post-sham or irradiation) is reported as 22-26 fold and the “bone marrow cellularity compared to the vehicle control” value (bone marrow; 7 Gy TBI, 10 mg/kg IP 24 hours prior, day 7) is reported as “slight increase in cellularity”. For the same compound, the “hematopoietic recovery as determined by the grade of bone marrow cellularity compared with control” value (bone marrow; 7 Gy TBI, 10 mg/kg IP 24 hours prior, day 14) was “significantly accelerated hematopoietic recovery”, the number of megakaryocytes (bone marrow; 7 Gy TBI, 10 mg/kg IP, between days 7-28) was “steady increase” and the number of megakaryocytes (bone marrow; 7 Gy TBI, 10 mg/kg IP, day 2) was “reduced”. The number of megakaryocytes (bone marrow; 7 Gy TBI, 10 mg/kg IP, day 7) was “severely depleted”, the “bone marrow cellularity grade” value (bone marrow; after irradiation (7 Gy TBI), 10 mg/kg IP 24 hours prior) was 1 (grade 1: <10%) and the number of megakaryocytes (bone marrow; sham-irradiated, 10 mg/kg IP, day 14, vs vehicle control) was “significantly higher than the vehicle control”. For the same compound, the “overall cellularity of the bone marrow” value (bone marrow; sham-irradiated, 10 mg/kg IP, duration of the study) was at least 90%, the “bone marrow cellularity grade” value (bone marrow; sham-irradiated, 10 mg/kg IP, duration of the study (days 2-28)) was 5 (grade 5: >90% cellularity) and the “% HCT compared to the irradiated control” value (CD2F1 male mice; 7 Gy TBI, day 14) was “significantly increased levels”. For the same compound, the “ALC counts compared to the controls” value (CD2F1 male mice; 7 Gy TBI, day 14) was “significantly increased”, the “WBC counts compared to the controls” value (CD2F1 male mice; 7 Gy TBI, day 14) was “significantly increased” and the “% RETIC compared to control mice” value (CD2F1 male mice; 7 Gy TBI, day 14, returned to baseline levels) was “significantly increased”. The “% RETIC compared to the vehicle controls” value (CD2F1 male mice; 7 Gy TBI, day 28) was “significantly increased”, the “ANC compared to the control” value (CD2F1 male mice; 7 Gy TBI, days 7 and 14) was “significantly increased” and the “PLT compared to the control” value (CD2F1 male mice; 7 Gy TBI, days 7 and 14) was “significantly increased”. For the same compound, the “hemoglobin, irradiated RRx-001 vs irradiated vehicle” value (CD2F1 male mice; [2]) was “not significantly different”, the “red blood cells, irradiated RRx-001 vs irradiated vehicle” value (CD2F1 male mice; [2]) was “not significantly different” and the “absolute lymphocyte count (ALC) vs vehicle control” value (CD2F1 male mice; [3]) was “No significant difference”. The “absolute neutrophil count (ANC) vs vehicle control” value (CD2F1 male mice; [3]) was “No significant difference”, the “percent hematocrit (% HCT) vs vehicle control” value (CD2F1 male mice; [3]) was “No significant difference” and the “percent reticulocytes (% RETIC) vs vehicle control” value (CD2F1 male mice; [3]) was “No significant difference”. For the same compound, the “platelets (PLT) vs vehicle control” value (CD2F1 male mice; [3]) was “No significant difference”, the “white blood cells (WBC) vs vehicle control” value (CD2F1 male mice; [3]) was “No significant difference” and the “platelets, overall mean over time (standard error)” value (CD2F1 male mice; sham-irradiated, 10 mg/kg IP, longitudinal mixed model repeated measures) was 1067.73 (32.26). For the same compound, the “difference in the overall mean of platelets over time vs vehicle” value (CD2F1 male mice; sham-irradiated, least-square means, p=0.01) was “statistically significant difference in the least-square means in favor of RRx-001-treatment”, the body weight ([1]; Groups 2 and 5 (10 mg/kg)) was “lower weights than all other groups” and the “body weight after cessation of dosing” value ([1]; Groups 2 and 5 (10 mg/kg), in line with other groups by study termination) was “weight slowly recovered”. For the same compound, the body weight ([1]; animals other than Groups 2 and 5 (1 and 3 mg/kg), duration of the study) was “steadily gained weight” and the tolerability ([1]; highest dose 10 mg/kg IP, Groups 2 and 5, dosing discontinued after Day 1) was “adverse side effects”.
